# Measurements from the supplement of paper PMC8671470.
# Assays:
# Assay in all cases: cell viability (% survival relative to DMSO control, bortezomib = 0%); higher = less cytotoxic
# Settings in all cases: 72 h
# [1] = system: HL-60
# In short: (§1)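 Fifteen myeloid leukaemia cell lines (10 AML, 5 CML) were seeded at a density titrated to the linear growth range into 384-well plates pre-printed with compounds at 1, 10, 100, 1000 or 10000 nM in duplicate. Plates were incubated for 72 h at 37 °C with 5% CO2. Viability was then read by CellTiter-Glo luminescence. Each value is percent survival averaged over the duplicates, with vehicle set to 100% and a 10 µM positive control to 0%.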
# [2] = system: MV4-11
# In short: as §1
# [3] = system: K-562
# In short: as §1
# [4] = system: KCL-22
# In short: as §1
# [5] = system: BV-173
# In short: as §1
# [6] = system: HEL
# In short: as §1
# [7] = system: THP-1
# In short: as §1
# [8] = system: Mono-Mac-6
# In short: as §1
# [9] = system: LAMA-84
# In short: as §1
# [10] = system: SHI-1
# In short: as §1
smiles,measurement,setting,value
Cc1cc(C(=O)NNCc2ccccc2)no1 [Isocarboxazid],cell viability,[1]; 1 nM,107%
same,cell viability,[1]; 10 nM,90.1%
same,cell viability,[1]; 100 nM,106%
same,cell viability,[1]; 1000 nM,122%
same,cell viability,[1]; 10000 nM,102%
same,cell viability,[2]; 1 nM,107%
same,cell viability,[2]; 10 nM,95%
same,cell viability,[2]; 100 nM,97.5%
same,cell viability,[2]; 1000 nM,81.4%
same,cell viability,[2]; 10000 nM,80.4%
same,cell viability,[3]; 1 nM,116%
same,cell viability,[3]; 10 nM,91.5%
same,cell viability,[3]; 100 nM,88.5%
same,cell viability,[3]; 1000 nM,99.6%
same,cell viability,[3]; 10000 nM,107%
same,cell viability,[4]; 1 nM,105%
same,cell viability,[4]; 10 nM,91.3%
same,cell viability,[4]; 100 nM,94.3%
same,cell viability,[4]; 1000 nM,98.3%
same,cell viability,[4]; 10000 nM,65.6%
same,cell viability,[5]; 1 nM,99.1%
same,cell viability,[5]; 10 nM,101%
same,cell viability,[5]; 100 nM,100%
same,cell viability,[5]; 1000 nM,117%
same,cell viability,[5]; 10000 nM,80.7%
same,cell viability,[6]; 1 nM,112%
same,cell viability,[6]; 10 nM,87.8%
same,cell viability,[6]; 100 nM,111%
same,cell viability,[6]; 1000 nM,92.6%
same,cell viability,[6]; 10000 nM,103%
same,cell viability,[7]; 1 nM,97.8%
same,cell viability,[7]; 10 nM,102%
same,cell viability,[7]; 100 nM,110%
same,cell viability,[7]; 1000 nM,97.4%
same,cell viability,[7]; 10000 nM,86.7%
same,cell viability,[8]; 1 nM,94.1%
same,cell viability,[8]; 10 nM,102%
same,cell viability,[8]; 100 nM,104%
same,cell viability,[8]; 1000 nM,107%
same,cell viability,[8]; 10000 nM,80.8%
same,cell viability,[9]; 1 nM,98.9%
same,cell viability,[9]; 10 nM,97.9%
same,cell viability,[9]; 100 nM,99.7%
same,cell viability,[9]; 1000 nM,95.5%
same,cell viability,[9]; 10000 nM,95.8%
same,cell viability,[10]; 1 nM,101%
same,cell viability,[10]; 10 nM,99.9%
same,cell viability,[10]; 100 nM,98.4%
same,cell viability,[10]; 1000 nM,99.1%
same,cell viability,[10]; 10000 nM,95.2%
